The record followed here is US20180289692A1, “TLR MODULATORS AND METHODS OF USE” (CELGENE CORPORATION, priority 2015, published 2018).

Type in all cases: cell-based
The test system of data set [1] is SMAD7 protein. Kind of data set: SMAD7 protein levels in human pDCs by FACS. Particulars: 24 hrs or 48 h, any indicated concentration, no transfection. The protocol:
PBMC from healthy donors were isolated from Buffy Coat blood (Blood Center of NY) by density-gradient centrifugation over Ficoll-Hypaque (Pharmacia Biotech). The cells were washed with PBS and re-suspended in RPMI-1640 Media with 10% inactivated fetal bovine serum, penicillin (100 U/ml) and streptomycin (100 μg/ml) and 2 mM L-glutamine (complete medium, Life Technologies). PBMC were treated with ODNs for indicated time periods at indicated concentrations, generally between 0.0001 μM and 10 μM, with CD40L plus anti-HisTag antibody, or with a vehicle control (endotoxin-free sterile water control). No transfection reagent was added with the ODNs.
SMAD7 protein levels were determined using standard FACS protocols. PBMCs were incubated on ice in the presence of Fc-Block (BD Pharmingen) for 20 minutes, washed, and incubated with antibodies specific for surface molecules or isotype-matched control mAbs. PECY-7-labeled anti-human CCR6 mAb, and PerCP-Cy5.5 labeled anti-human CD123 mAb were purchased from BD Biosciences. SMAD7 antibody was purchased from Biorbyt, Cambridge, UK. The stained cells were then subjected to FACS (FACSCanto, BD Biosciences) using the FACSDiva software. FACS analysis was performed using FlowJo software. Single, viable cells in the CCR6+CD123+ pDC gates were used for analysis of, e.g., SMAD7 protein levels.

Data set [2] deals with human purified pDCs. The data set is described as follows: IFN-α secretion from purified human pDCs by ELISA. The text has this:
By contrast, ODN2006 induced IFN-α secretion from purified and matured pDCs, and ODN150 and ODN7040 induced IFN-α secretion from matured pDCs.

In data set [3] the test system is canonical NF-κB promoter reporter. The data set is described as follows: Mouse Raw Blue Reporter Cells, SEAP reporter driven by canonical NF-κB promoter (FIG. 11). The following applies: mouse macrophages, 24 hrs. The protocol:
Mouse Raw Blue Reporter Cells (Invivogen), containing a secreted embryonic alkaline phosphatase (SEAP) reporter gene driven by canonical NF-κB promoter, were plated in 96-well plates at 50,000 cells/well in DMEM Media supplemented with 10% FBS, 2 mM L-glutamine, 1% Pen/Strep, […] Normacin. […] The supernatant was harvested and tested for SEAP production by measuring OD at 630 nm.

Data set [4] deals with human pDCs. Kind of data set: Surface ICOS-L and PD-L1 expression in CCR6+CD123+ human pDCs by FACS. Particulars: human pDCs, 24 hrs, FIG. 2B. As for the experimental part:
To evaluate surface ICOS-L, PD-L1 expression in the CCR6+CD123+ pDC cell subsets, PBMCs were incubated on ice in the presence of Fc-Block (BD Pharmingen) for 20 minutes, washed, and incubated with antibodies specific for surface molecules or isotype-matched control mAbs. APC-labeled anti-human ICOS-L mAb were purchased from BioLegend, PECY-7-labeled anti-human CCR6 mAb, FITC-labeled anti-human PD-L1 mAb and PerCP-Cy5.5 labeled anti-human CD123 mAb were purchased from BD Biosciences. The stained cells were then subjected to FACS (FACSCanto, BD Biosciences) using FACSDiva software. FACS analysis was performed using FlowJo software. Single, viable cells in the CCR6+CD123+ pDC gates were analyzed. The flow cytometric results are expressed as the percentage and MFI of ICOSL-, or PD-L1-expressing cells in each gate.
pDCs were isolated and ICOS-L expression was analyzed as described in Example 2.

For data set [5], the target named is T1, TLR7 (Homo sapiens, UniProt Q9NYK1).
T1 construct: endogenous in cells; host or cells: human PBMCs from healthy donors
T1 sequence (Q9NYK1 27-1049): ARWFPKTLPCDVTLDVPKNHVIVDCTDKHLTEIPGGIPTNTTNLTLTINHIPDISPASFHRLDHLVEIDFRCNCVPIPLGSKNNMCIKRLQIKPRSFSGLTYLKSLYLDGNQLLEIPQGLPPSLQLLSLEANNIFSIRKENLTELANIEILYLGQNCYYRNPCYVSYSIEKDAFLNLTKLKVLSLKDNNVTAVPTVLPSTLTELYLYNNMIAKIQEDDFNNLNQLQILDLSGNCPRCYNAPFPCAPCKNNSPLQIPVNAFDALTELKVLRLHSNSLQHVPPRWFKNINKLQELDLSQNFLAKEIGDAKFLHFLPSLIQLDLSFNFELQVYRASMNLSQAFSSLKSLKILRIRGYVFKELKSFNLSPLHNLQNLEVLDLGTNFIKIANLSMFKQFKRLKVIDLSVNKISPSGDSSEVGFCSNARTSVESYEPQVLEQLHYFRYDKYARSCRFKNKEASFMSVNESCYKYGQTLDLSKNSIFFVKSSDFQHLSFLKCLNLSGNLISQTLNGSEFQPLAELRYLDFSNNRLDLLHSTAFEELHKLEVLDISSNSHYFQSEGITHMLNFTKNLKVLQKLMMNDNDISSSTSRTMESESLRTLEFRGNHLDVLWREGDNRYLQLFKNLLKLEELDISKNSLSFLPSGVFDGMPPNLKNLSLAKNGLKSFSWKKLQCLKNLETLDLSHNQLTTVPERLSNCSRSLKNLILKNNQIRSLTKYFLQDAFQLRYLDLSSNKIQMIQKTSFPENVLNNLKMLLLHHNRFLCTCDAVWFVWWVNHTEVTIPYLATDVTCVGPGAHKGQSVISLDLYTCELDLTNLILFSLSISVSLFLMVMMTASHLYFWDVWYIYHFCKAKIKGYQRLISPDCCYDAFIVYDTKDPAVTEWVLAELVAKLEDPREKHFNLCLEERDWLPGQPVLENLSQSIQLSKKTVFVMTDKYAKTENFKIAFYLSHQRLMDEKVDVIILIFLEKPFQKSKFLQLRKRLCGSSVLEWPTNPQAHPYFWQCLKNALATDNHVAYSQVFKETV
The data set is described as follows: Inhibition of TLR7 (imiquimod)-induced IFNα and IP10 (CXCL10) in PBMCs. The protocol:
After 24 hours, the supernatant was harvested and tested for IFNα using MagPix Multi-Plex technology.

Like-named read-outs stand apart in the source and are kept apart here. Oligonucleotides are written 5' to 3', each unit as a sugar letter and its base; * is a phosphorothioate linkage, no mark a phosphodiester; rarer units and linkages stand in square brackets, end groups in braces. Plain capitals give the bases only. d = 2'-deoxy (DNA)

On to “ODN150: 5′-G*G*A*ACAGTTCGTCCAT*G*G*C-3′, PO except * = PS; antisense to p65 of NF-kB mRNA; tested clinically for ulcerative colitis (DNA dG*dG*dA*dAdCdAdGdTdTdCdGdTdCdCdAdT*dG*dG*dC)”, for which, in data set [1], the “effect on SMAD7 protein levels” value was “do not affect”. Also, in data set [2] (3 μM, 48 hours, ELISA, FIG. 18), the “IFN-α secretion from pDCs matured by IL-3 treatment” value is listed as “induced”. Besides, in data set [2] (pDC, relative strength, Table 6), the IFN-α entry was “↑ ↑”. Further, the “concentration from which the NF-κB reporter is activated” value in data set [3] worked out at 10 µM. Moreover, the “activation of canonical NF-κB reporter” value in data set [3] (SEAP, COMPOUND (I) up to 10 μM) was “activate”. The PD-L1 protein induction result in data set [4] was “can induce”. Also, the concentration for half-maximal inhibition (IC50) was above 10 µM in data set [5] (Imiquimod 5 μg/ml 24 hours, FIGS. 8B, 9A, read-out: IC50, TLR7-mediated IFNα induction) and above 10 µM in data set [5] (imiquimod, FIG. 9B, read-out: IC50, TLR7-mediated IP10 (CXCL10) induction).
